{
  "source": "patent US5882851A",
  "about": "“Cytochrome P-450 monooxygenases” (Novartis Finance Corporation, priority 1993, dated 1999)",
  "key": {"[1]": {"molecular_target": "T1, P-450TYR expressed in E. coli (Sorghum bicolor, UniProt Q43135)", "T1 construct": "in which the 35 N-terminal amino acids are replaced by the nine N-terminal amino acids from bovine 17α hydroxylase; nine N-terminal amino acids from bovine 17alpha-hydroxylase (replace the 35 N-terminal residues) (N); made in house; host or cells: E. coli JM109, vector pSP19g10L", "T1 sequence (Q43135 other isoform, or with tags, fused parts or gaps)": "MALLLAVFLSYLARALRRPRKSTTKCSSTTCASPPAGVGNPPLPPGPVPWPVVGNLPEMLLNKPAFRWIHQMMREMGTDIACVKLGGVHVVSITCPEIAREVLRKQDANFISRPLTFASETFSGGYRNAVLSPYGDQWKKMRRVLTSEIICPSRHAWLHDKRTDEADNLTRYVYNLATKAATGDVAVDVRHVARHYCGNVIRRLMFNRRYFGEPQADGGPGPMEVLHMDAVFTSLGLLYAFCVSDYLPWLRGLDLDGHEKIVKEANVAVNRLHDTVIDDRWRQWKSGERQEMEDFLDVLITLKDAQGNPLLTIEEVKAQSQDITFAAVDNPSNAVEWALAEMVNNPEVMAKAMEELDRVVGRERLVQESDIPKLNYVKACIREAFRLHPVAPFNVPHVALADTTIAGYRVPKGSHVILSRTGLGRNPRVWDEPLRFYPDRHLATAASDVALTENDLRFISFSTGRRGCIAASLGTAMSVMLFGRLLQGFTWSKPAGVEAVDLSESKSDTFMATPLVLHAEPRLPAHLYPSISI", "assay": "Substrate binding spectra of P-450TYR expressed in E. coli", "from_the_text": "Cytochrome P-450TYR in the oxidized state has a strong absorption peak at 420 nm, representing the low spin state of the iron of the heme group. The binding of a ligand to the heme group shifts the absorption maximum by changing the spin state of the iron. Binding of tyrosine at the catalytic site of cytochrome P-450TYR induces a change of the spin state of the oxidized iron from low to high spin, and thereby changes the absorption maximum from 420 nm to 390 nm producing a type I spectrum (Jefcoate, Methods in Enzymology 52:258-279, 1978). The following experimental procedure is used to obtain the substrate binding spectrum: two identical cuvettes containing a buffered solution of the isolated cytochrome P-450 are prepared. The substrate of the enzyme is added to the sample cuvette whereas the same volume of buffer is added to the other cuvette. The difference spectrum is then recorded in an SLM-Aminco DW2c spectrophotometer. The absorption difference, A390-420, is proportional to the concentration of cytochrome P-450TYR with a bound substrate at its active site. If a saturating concentration of substrate is added to the sample cuvette, the absorption difference is proportional to the concentration of the substrate specific cytochrome P-450 in the cuvettes. The saturating concentration of the substrate is determined by titrating the cytochrome P-450 sample with increasing amounts of substrate and monitoring A390-420.\nA modified cytocrome P-450TYR, in which the 35 N-terminal amino acids are replaced by the nine N-terminal amino acids from bovine 17α hydroxylase is introduced into the expression vector pSP19g10L which can be obtained from Dr. Henry Barnes (La Jolla, Calif.). This plasmid contains the lac Z promoter fused with the known short leader sequence (g10L) of gene 10 from bacteriophage T7 (Olin et al, 1988). A construct containing the N-terminal amino acids from bovine 17α hydroxylase and a truncated form of the P-450TYR gene is designed using PCR mutagenesis: Oligonucleotide TYROL 1d (5'-CGGGATCCATATGGCTCTGTTATTAGCAGTTTTTCTGTCGTACCTGGCCCG-3'; SEQ ID NO 23) containing a 5' mutant cDNA sequence as well as a BamHI and NdeI restriction site is used together with oligonucleotide TYROL 3 comprising the sequence surrounding the unique BamHI restriction site downstream of the ATG start codon of the cDNA coding for P-450TYR to amplify a modified N-terminal sequence of P-450TYR. The amplification product is cut with NdeI and BamHI restriction enzymes. To introduce a HindIII site immediately downstream of the stop codon of the P-450TYR gene, oligonucleotides TYROL 2 and TYROL 4 are used in a polymerase chain reaction to obtain a C-terminal fragment of the P-450TYR gene comprising a HindIII restriction site immediately downstream of the stop codon. The amplification product is cut with PstI and HindIII restriction enzymes. The complete expression plasmid is constructed by simultaneous ligation of the N-terminal NdeI/BamHI fragment, the BamHI/PstI fragment of the P-450TYR gene and the C-terminal PstI/HindIII fragment into NdeI/HindIII cleaved pSP19g10L vector DNA. The expression vector obtained is transformed into E. coli strain JM109. Transformed E. coli produce 300 nmol to 500 nmol cytochrome P-450TYR per liter cell culture upon growth at 28° C. in the presence of 1 mM isopropyl-β-D-thiogalactopyranoside and at 125 rpm. Expression levels as high as 900 nmol per liter, equivalent to 55 mg P-450TYR per liter, have been obtained. […]"}, "[2]": {"molecular_target": "T2, cytochrome P-450TYR (Sorghum bicolor, UniProt Q43135)", "T2 construct": "from tissue; host or cells: microsomes of etiolated Sorghum bicolor seedlings, solubilised and purified by dye columns", "T2 sequence (Q43135 2-558)": "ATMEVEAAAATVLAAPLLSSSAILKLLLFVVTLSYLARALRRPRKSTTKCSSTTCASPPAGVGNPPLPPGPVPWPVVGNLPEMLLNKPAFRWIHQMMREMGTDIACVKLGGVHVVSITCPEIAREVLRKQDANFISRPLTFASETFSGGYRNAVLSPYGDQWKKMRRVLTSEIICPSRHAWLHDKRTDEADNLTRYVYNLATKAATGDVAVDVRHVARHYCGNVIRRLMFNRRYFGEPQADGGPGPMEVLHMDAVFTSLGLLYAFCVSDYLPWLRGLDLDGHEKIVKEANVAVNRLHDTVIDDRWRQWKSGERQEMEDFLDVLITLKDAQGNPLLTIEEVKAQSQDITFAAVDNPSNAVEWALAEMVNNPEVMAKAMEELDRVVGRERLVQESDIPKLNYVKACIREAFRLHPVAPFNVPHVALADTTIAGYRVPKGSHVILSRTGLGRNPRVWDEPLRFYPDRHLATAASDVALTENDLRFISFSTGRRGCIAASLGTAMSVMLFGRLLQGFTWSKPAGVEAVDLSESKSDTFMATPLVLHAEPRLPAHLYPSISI", "assay": "Reconstitution of cytochrome P-450TYR activity in DLPC micelles", "assay_type": "biochemical", "from_the_text": "Reconstitution of the enzyme activity of a microsomal P-450 enzyme is accomplished by insertion of the cytochrome P-450 enzyme and the corresponding NADPH-cytochrome P-450 oxidoreductase into appropriate lipid micelles made from different commercially available lipids. Isolation of NADPH-cytochrome P-450 oxidoreductase is done according to Halkier and Moller, Plant Physiol. 96:10-17, 1990. A mixture of lipids can be used but with cytochrome P-450TYR di-lauroyl-phosphatidyl choline (DLPC) provides the best enzymatic activity. One rate limiting factor of this rate limiting reaction is the number of correctly formed complexes of cytochrome P-450TYR and NADPH-cytochrome P-450 oxidoreductase. Excess amounts of the oxidoreductase and concentrated enzyme solutions ensure a sufficient number of active complexes.\nA reconstituted enzyme is obtained using the following components:\nCytochrome P-450TYR : 100 μg/ml in 50 mM potassium phosphate buffer pH 7,9\nOxidoreductase, purified from Sorghum bicolor: 100 μg/ml in 50 mM potassium phosphate buffer pH 7,9\nLipid: 10 mg/ml di-lauroyl-phosphatidyl choline, sonicated in 50 mM potassium phosphate buffer pH 7,9\n^14 C-tyrosine: commercially available from Amersham; [U-^14 C]-L-tyrosine 0.5 μCi\n10 μl of the lipid suspension is mixed in a glass vial with 50 μl of the cytochrome P-450TYR (0-1.5 pmol) solution. 50 μl of the oxidoreductase (0-0.15 U) solution is added and then 10 μl tyrosine solution and 10 μl NADPH solution are added and the mixture is sonicated in a Branson 5200 sonication bath for one minute. The reaction mixture is subsequently incubated for 1 hour at 30° C. At the end of the incubation period the reaction is stopped by transferring the glass vials onto ice. Radioactively labelled intermediates formed are extracted into 50 μl ehtyl acetate, applied to a silica coated TLC plate and developed using an ethyl acetate/toluene (1:5 v/v) mixture as mobile phase. The resultant product, p-hydroxyphenylacetaldehyde oxime is visualized by autoradiography of the TLC plate. Alternatively, the intermediates are analyzed by reverse-phase HPLC coupled to a Berthold radioactiviy monitor. The HPLC separation was carried out using a nucleosil 100-10C18 column isocratically eluted with 1,5% 2-propanol in 25 mM Hepes pH 7,9 (Halkier et al, J. Biol. Chem. 264:19487-19494, 1989). Control samples may be made by omitting either cytochrome P-450 oxidoreductase or NADPH."}},
  "data": [
    {"smiles": "N[C@@H](Cc1ccc(O)cc1)C(=O)O", "note": "[tyrosine, L-tyrosine]", "values": [
      {"measurement": "molar extinction coefficient E420-390", "setting": "[1]", "value": 75.8, "unit": "cm⁻¹ mM⁻¹"},
      {"measurement": "turn-over number", "setting": "[2]; in the absence of added salt", "value": 228, "unit": "min⁻¹"},
      {"measurement": "turn-over number", "setting": "[2]; in the presence of 15 mM NaCl", "value": 198, "unit": "min⁻¹"}
    ]}
  ]
}
